Measured values: patent publication US9339486B2, “Heterocyclic modulators of cannabinoid receptors” (THE CLEVELAND CLINIC FOUNDATION, priority 2008, dated 2016)

Assays:
CB2 [1] = molecular target: T1, CB2 (Homo sapiens (Human), UniProt P34972); assay: Radioligand competition binding, CHO-K1 membranes, [3H]CP 55,940; details: 1 nM [3H]CP 55,940, read-out: Mean Ki (nM) hCB2
Experimental: Mukherjee, S., et al., Species Comparison and Pharmacological Characterization of Rat and Human CB2 Cannabinoid Receptors, Eur J Pharmacol, 2004, 505:1-9. […] IC50 were determined by non-linear regression using one site competition equation. The inhibition constants (Ki) were calculated using the Cheng Prusoff equation (Ki=IC50/(1+(L/KD)), where L=concentration of radioligand in the assay, and KD=affinity of the radioligand for the receptor).

CB2 [2] = molecular target: T1, CB2; assay: CB1/CB2 Functional Assay (GTPγ[35S]), CB2 membranes; assay type: biochemical
Experimental: A dose response curve was generated at eight concentrations in duplicate on CB1 and CB2 in light of reference agonists. The reference agonists for cannabinoid receptors was CP55,940. See FIGS. 1A, 1B, 2A, 2B, 3A and 3B.
Membranes (CB1, ES-110-MG or CB2, ES-111-MG) were mixed with GDP (volume:volume) and incubated for at least 15 min on ice. In parallel, GTPγ[^35S] were mixed with the beads (volume:volume) just before starting the reaction. The following reagents were successively added in the wells of an Optiplate: 50 μl of ligand, 20 μl of the membranes:GDP mix, 10 μl of assay buffer for agonist testing and 20 μl of the GTPγ[^35S]: beads mix. The plates were covered with a topseal, shaken on an orbital shaker for 2 min, and then incubated between 30 to 60 min. at room temperature. Then the plates were centrifuged for 10 min at 2000 rpm, incubated at room temperature between 1 to 4 hours and counted for 1 min with a PerkinElmer TopCount reader.

[3] = molecular target: hCB1 (human CB1) receptors (Homo sapiens (Human), UniProt P21554); assay: GTPγ[35S] functional assay, CHO membrane extracts hCB1; assay type: biochemical
Experimental: (§1) Functional activity was evaluated using GTPγ[^35S] assay in CHO membrane extracts expressing recombinant hCB1 (human CB1) receptors or hCB2 (human CB2) receptors. The assay relies on the binding of GTPγ[^35S], a radiolabeled nonhydrolyzable GTP analogue, to the G protein upon binding of an agonist of the G-protein-coupled receptor. In this system, agonists stimulate GTPγ[^35S] binding whereas neutral antagonist have no effect and inverse agonists decrease GTPγ[^35S] basal binding.
(§2) The compound of Example 3 was solubilized in 100% DMSO at a concentration of 10 mM within 4 hours of the first testing session (master solution). A predilution for the dose response curve was performed in 100% DMSO and then diluted 100 fold in assay buffer at a concentration 2 fold higher than the concentration to be tested. […] For GTPγS membranes were mixed with GDP diluted in assay buffer to give 30 μM solution (volume:volume) and incubated for at least […] on ice. In parallel, GTPγ[^35S] (GE Healthcare, Catalogue number SJ1308) were mixed with the beads (PVT-WGA (GE Healthcare, RPNQ001)), diluted in assay buffer at 50 mg/ml (0.5 mg/10 μl) (volume:volume) just before starting the reaction. […] Then the plates were centrifuged for 10 min at 2000 rpm and counted for 1 min/well with a PerkinElmer TopCount reader. […]

[4] = molecular target: hCB2 (human CB2) receptors (Homo sapiens (Human), UniProt P34972); assay: GTPγ[35S] functional assay, CHO membrane extracts hCB2; assay type: biochemical
Experimental: as §1, §2

nerve-ligation model = assay: Assessment of mechanical allodynia in rats, L5/6 spinal-nerve ligation, von Frey (IP or IT); assay type: in vivo, rat
Experimental: All experiments were performed on male Sprague-Dawley rats (200-250 g). Rats were housed individually in plastic cages with soft bedding at room temperature and maintained on a 12-hour light-dark cycle with free access to food and water.
Neuropathic pain was induced following the methods of Kim and Chung. Kim S H, Chung J M. An experimental model for peripheral neuropathy produced by segmental spinal nerve ligation in the rat. Pain 1992; 50:355-63. Rats were anesthetized and placed prone under a microsurgical apparatus. A midline incision was made on the back, and the right paraspinal muscles were separated from the spinous processes at the L4-S2 levels. The L6 transverse process was carefully removed, and the L4/5 spinal nerves were identified. The L5 nerve was tightly ligated with a 6-0 silk suture. The right L6 spinal nerve was then located just caudal and medial to the sacroiliac junction and tightly ligated with a silk suture.
Two weeks later after spinal nerve ligation, Intrathecal catheters (PE-10 tubing) was inserted into the rats while they were anesthetized with isoflurane, as described by Yaksh and Rudy. Yaksh T L, Rudy T A. Chronic catheterization of the spinal subarachnoid space. Physiology & Behavior 1976; 17:1031-6. A midline incision was made on the back of the neck. The muscle was freed at the attachment to the skull exposing the cisternal membrane. The membrane was opened with a stab blade and an 8.5 cm polyethylene (PE-10) catheter was then inserted through the cisternal opening, and passed carefully and caudally into the intrathecal space at the L1-L3 spinal segments. The end of the catheter was tunneled through the subcutaneous space over the frontal bones, flushed with 10 μl saline, and then plugged with a short length of wire. Animal testing was performed 5-7 days after intrathecal catheter placement.
To assess mechanical allodynia, the mechanical paw withdrawal threshold was measured with a series of von Frey hairs (range 0.4-15 g). Rats were placed in elevated Perspex enclosures (28 cm×15 cm×18 cm) with wire mesh bases and given 15-20 min to acclimatize to the testing environment. Rats will be allowed to acclimatize for 30 min in a clear plastic cage with a wire mesh bottom. The calibrated von Frey filament fibers were applied to the hindpaw briefly for 6 seconds to determine the paw withdrawal threshold before and after drug injection (intraperitoneally or intrathecally). A series of von Frey filaments with exponentially incremental stiffness (0.4, 0.7, 1.2, 2.0, 3.6, 5.5, 8.5 and 15 g) were used to measure the 50% threshold for hindpaw withdrawal in awake, unrestrained rats. Chaplan S R, Bach F W, Pogrel J W, Chung J M, Yaksh T L. Quantitative assessment of tactile allodynia in the rat paw. Journal of Neuroscience Methods 1994; 53:55-63. Brisk paw withdrawal from the pressure of a filament gently bent against the plantar paw was defined as a positive response, and absence of withdrawal within 6 s as a negative response. Filaments were touched to the hindpaw in sequential ascending or descending order until the threshold of response is crossed (allowing about 10 s between each increment of the von Frey filaments). Each time the threshold is crossed, the direction of stimulus presentation was reversed and the procedure will be resumed. Four responses were collected after the first threshold detection, and the 50% withdrawal thresholds were interpolated. In cases where response thresholds fell outside the range of detection, 15.00 and 0.25 g were, respectively, assigned for continuous negative or positive responses to the limit of stimuli.
The compound of Example 3 was prepared in dimethyl sulfoxide (DMSO).

T1 sequence (P34972 whole entry): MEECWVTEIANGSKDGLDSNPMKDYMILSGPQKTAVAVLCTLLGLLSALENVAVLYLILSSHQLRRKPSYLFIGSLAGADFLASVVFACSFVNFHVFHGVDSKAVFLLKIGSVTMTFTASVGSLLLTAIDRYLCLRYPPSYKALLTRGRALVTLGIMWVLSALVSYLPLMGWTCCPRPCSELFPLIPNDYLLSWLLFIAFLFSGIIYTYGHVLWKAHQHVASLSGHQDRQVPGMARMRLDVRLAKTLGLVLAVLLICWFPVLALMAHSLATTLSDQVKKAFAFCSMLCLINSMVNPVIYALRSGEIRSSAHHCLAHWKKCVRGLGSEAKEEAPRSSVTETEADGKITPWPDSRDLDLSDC

For `CC1(Cc2ccccc2)COc2cc(C(=O)N3CCCCC3)ccc21` (stereo not drawn) [Example 3, 3-benzyl-3-methyl-2,3-dihydrobenzofuran-6-carboxylic acid-piperidine amide], the Ki (CB2 [1]) was 422 ± 123 nM, the “Compound Function” value (CB2 [2]) was “Agonist” and the EC50 (CB2 [2]; read-out: EC50 (nM) for GTP Binding) was 160 nM. For the same compound, the “% Activation Average” value (CB2 [2]; reference agonist CP55,940) was 87.2%, the “agonistic or antagonistic activities at hCB1 receptors” value [3] was “did not result in any agonistic or antagonistic activities” and the EC50 ([3]; read-out: Agonist EC50 (mean ± s.e. mean) GTPγ[35S] functional assays hCB1) was over 10000 nM. The Emax [4] was 88%, the EC50 ([4]; read-out: Agonist EC50 (mean ± s.e. mean) GTPγ[35S] functional assays hCB2) was 128 nM and the “mechanical paw withdrawal threshold maintained” value (nerve-ligation model; IP 30 mg/kg) was 15 g. For the same compound, the “time of peak effect following IP administration” value (nerve-ligation model; IP 30 mg/kg) was at most 5 min, the “effect on mechanical paw withdrawal threshold” value (nerve-ligation model; IP 30 mg/kg in 0.5 ml) was “increase in mechanical paw withdrawal threshold” and the “duration of high threshold” value (nerve-ligation model; IP 30 mg/kg, 2-h observation period) was over 2 h. The “behavioral abnormalities or side effects” value (nerve-ligation model; IT administration) was “No behavioral abnormalities or side effects were noted”, the “effect on mechanical paw withdrawal threshold” value (nerve-ligation model; IT administration) was “increase in mechanical paw withdrawal threshold” and the “duration of increase in mechanical paw withdrawal threshold” value (nerve-ligation model; IT administration, 90-min observation period) was at least 90 min.
